Test results from US20230295162A1 (EÖTVÖS LORÁND TUDOMÁNYEGYETEM, priority 2020, published 2023).

Columns and labels:
[1] = tested on: A-431 (human squamous carcinoma) cells; experiment: Short term cytotoxicity, MTT assay; format: cell-based; conditions: 1 h treatment then 72 h culture, read-out: cytotoxicity expressed in IC50, A-431
Protocol: (§1) For the short term cytotoxicity studies the A-431 (human squamous carcinoma) and U-87 (human primary glioblastoma) cells were cultured in RPMI-1640 medium supplemented with 10% FCS (fetal calf serum, Sigma Ltd.), 2 mM L-glutamine, and […] gentamicin. Cell cultures were maintained at 37° C. in a humidified atmosphere with 5% CO2. The cells were grown to confluency and were distributed into 96-well plate with initial cell number of 5.0×10^3 per well. After 24 h incubation at 37° C., the cells were treated with the compounds in 200 μL final volume containing 1.0 v/v % DMSO. The cells were incubated with the compounds at 10^−4-10^2 μM concentration range for 1 h. Control cells were treated with serum free medium (RPMI-1640) only or with DMSO (c=1.0 v/v %) at 37° C. for 1 h. After incubation the cells were washed twice with serum free (RPMI-1640) medium. To determine the in vitro cytostatic effect, the cells were cultured for a further 72 h in 10% serum containing medium. MTT-solution ([…], 2 mg/mL, final concentration: 0.37 mg/mL) was added to each well. The respiratory chain [26, 27] and other electron transport systems reduce MTT and thereby form non-water-soluble violet formazane crystals within the cell. […] After 4 h of incubation the cells were centrifuged for 5 min (900 g) and the supernatant was removed. The obtained formazane crystals were dissolved in DMSO ([…]) and optical density (OD) of the samples was measured at λ=540 and 620 nm, respectively, using ELISA Reader (iEMS Reader, Labsystems, Finland). OD620 values were subtracted from OD540 values. The percent of cytostasis was calculated by using the following equation: Cytostatic effect (%)=[1−(ODtreated/ODcontrol)]×100 Values ODtreated and ODcontrol correspond to the optical densities of the treated and the control cells, respectively. In each case two independent experiments were carried out with 4 parallel measurements. […] The curves were defined using Microcal™ Origin1 (version 7.5) software: cytostasis was plotted as a function of concentration, fitted to a sigmoidal curve, and based on this curve, the half maximal inhibitory concentration (IC50) value was determined.

[2] = tested on: U-87 (human primary glioblastoma) cells; experiment: Short term cytotoxicity, MTT assay; format: cell-based; conditions: 1 h treatment then 72 h culture, read-out: cytotoxicity expressed in IC50, U-87
Protocol: as §1

[3] = tested on: MDA-MB-231 human triple-negative breast cancer xenografts; experiment: Antitumoral effect on subcutaneous MDA-MB-231 tumor xenografts in SCID mice (Example 23); format: in vivo; conditions: intraperitoneal
Protocol: MDA-MB-231 human triple-negative breast cancer xenografts were formed by subcutaneous inoculation of tumor cells into the back of the immunodeficient (SCID) mice. The investigated materials were injected into the animals intraperitoneal every two-three days for 3 weeks.
Forty SCID mice were included in the experiment. Each animal group was kept in separate cage during the experiments. On each cage, there was an identification card with birth date, the date of tumor cell injection, number and gender of animals. The injection of each substance was written on the identification card. Eight animals per substance were used and identified by ear cutting.
MDA-MB-231 human triple-negative breast cancer cells were grown in RPMI-1640 Medium (Sigma Chemical Co., St. Louis, MO), supplemented with 10% fetal bovine serum (Sigma) and 1% penicillin-streptomycin (Sigma) at 37° C. in a humidified atmosphere of 5% CO2. […]
During the experiment weight of the animals and size of the tumors were recorded.
Tumor volume was determined three times a week during the experiment.
Anti-tumor effect of compounds was evaluated also measuring tumor weight in each group after termination of experiment (FIGS. 64 and 65).

Compound	IC50 [1] [µM]	IC50 [2] [µM]	tumor volume / tumor growth ([3]; 3 weeks, vs control (Student's t-test))	tumor weight after termination ([3]; after termination of experiment, vs control)
O=C1C2=C(CCN(Cc3cccc(F)c3)C2)N2CCN=C2N1Cc1ccc(C(F)(F)F)cc1 [I/3, reference compound]	< 0.2	4.16		
O=C1C2=C(CCN(Cc3cc(F)cc(F)c3)C2)N2CCN=C2N1Cc1ccc(Cl)cc1 [I/124, 4-(4-Chlorobenzyl)-7-(3,5-difluorobenzyl)-2,4,6,7,8,9-hexahydroimidazo[1,2-a]pyrido[3,4-e]pyrimidin-5(1H)-one]			significant	highest, significant inhibition
